Data from patent US12018093B2, “Hemiasterlin derivatives and antibody-drug conjugates including same” (priority 2017, dated 2024).
Values joined by “and” are separate entries in the source; they are usually repeats but may differ in a detail not shown here. Equal values may be shown once. “Also recorded” adds a separate entry of the source. Read-outs that look alike come from different tables or passages of the source.

What was measured:
[1] = Pharmacokinetic evaluation test using mice; assay type: in vivo; conditions: for half-life: single intravenous administration
Description: A pharmacokinetic evaluation test was performed by single intravenous administration of Example 4 at a dose of 1.0 mg/kg to mice. A calibration curve was made from measurements of Example 4 with known concentration, and by interpolating measurements of each specimen to this, the amount of the compound contained in unit volume of each plasma was calculated using LC-MS. Pharmacokinetics of compound 14 and hemiasterlin were similarly evaluated.
(n.d. in the tables means less than the detection limit value (0.5 ng/mL).)

SK-BR-3 cells = assay: Cellular toxicity test (2), CellTiter-Glo, SK-BR-3; assay type: cell-based; conditions: Homo sapiens, 72 h, cultured 3 days, cell viability
Description: (§1) The IC50 value was calculated by the following formula: IC50(nM)=antilog(LOG10(a/b)×(e−d)/(c−d)+LOG10b) • a: concentration a of test substance • b: concentration b of test substance • c: cell viability upon adding test substance with concentration a • d: cell viability upon adding test substance with concentration b • e: intermediate value between maximum and minimum among cell viabilities upon • adding test substances with different concentrations (a and b are concentrations crossing the cell viability e, and a>b is indicated).
(§2) The cell viability at each concentration was calculated by the following formula: Cell Viability (%)=a′/b′×100 • a′: mean value of luminescence amount of wells to which test substance was added (n=6) • b′: mean value of luminescence amount of wells to which test substance was not added (n=6) • (n represents the number of evaluations performed per test substance concentration).
SK-BR-3 cells (ATCC), which are a human breast cancer cell line, were cultured in McCoy's 5A (GIBCO) containing 10% fetal bovine serum (MP Biomedicals) (hereinafter, referred to as the “culture medium” in this test). SK-BR-3 cells were prepared to be 2×10^6 cells/mL in the culture medium, added to a 96 well microplate for cell culturing in an amount of 50 μL for each well, and cultured at 37 degree under 5% CO2 overnight, and then, compounds of Examples or hemiasterlin 4 times diluted with the culture medium in 8 stages were added to the microplate in an amount of 50 μL for each well. To wells to which the test substance was not added, the culture medium was added in an amount of 50 μL for each well. These were cultured at 37 degree under 5% CO2 for 3 days. After culturing, the microplate was taken out from the incubator, and was left at rest at room temperature for 10 minutes. 50 μL of CellTiter-Glo Luminescent Cell Viability Assay (Promega) was added, and the resultant mixture was stirred. This mixture was incubated at a dark place for 20 minutes. Using a microplate luminometer, luminescence at each well was measured, thereby calculating the cell viability for each concentration of the test substance. The IC50 value was calculated in accordance with the method described in Test Example 3.

SU-DHL-1 cells = assay: Cellular toxicity test (1), CellTiter-Glo, SU-DHL-1; assay type: cell-based; conditions: Homo sapiens, 96 h, cultured 4 days, cell viability
Description: (§3) SU-DHL-1 cells (American Type Culture Collection, hereinafter, ATCC) and Karpas-299 cells (European Collection of Authenticated Cell Cultures, hereinafter, ECACC), which are human lymphoma cell lines, were cultured in RPMI 1640 (GIBCO) containing 10% fetal bovine serum (MP Biomedicals) (hereinafter, referred to as the “culture medium” in this test). SU-DHL-1 cells and Karpas-299 cells were prepared to be 2×10^6 cells/mL in the culture medium, and were added to a 96 well microplate for cell culturing in an amount of 50 μL for each well. Compounds of Examples or hemiasterlin 4 times diluted with the culture medium in 8 stages were added to the microplate in an amount of 50 μL for each well. To wells to which the test substance was not added, the culture medium was added in an amount of 50 μL for each well. These were cultured at 37 degree under 5% CO2 for 4 days. After culturing, the microplate was taken out from the incubator, and was left at rest at room temperature for 10 minutes. To each well, 50 μL of CellTiter-Glo Luminescent Cell Viability Assay (Promega) was added, and the resultant mixture was stirred. This mixture was incubated at a dark place for 20 minutes. Using a microplate luminometer, luminescence at each well was measured, thereby calculating the cell viability for each concentration of the test substance. From the cell viability, the IC50 value of the test substance was determined.
as §1, §2

Karpas-299 cells = assay: Cellular toxicity test (1), CellTiter-Glo, Karpas-299; assay type: cell-based; conditions: Homo sapiens, 96 h, cultured 4 days, cell viability
Description: as §3, §1, §2

in vitro = conditions: PAMPA, pH 7.4
Description: By the parallel artificial membrane permeability assay (PAMPA), the membrane permeability of compounds of Examples was examined as follows: To the donor plate, System solution (pION inc.) and GIT Lipid-0 (pION inc.) were added in an amount of 200 μL and 4 μL for each well, respectively. To the acceptor plate, Acceptor Sink Buffer (pION inc.) was added in an amount of 200 μL. Both plates were superposed and incubated at 37° C. for 4 hours, and then, UVs in the solutions on the side of acceptor and on the side of donor were measured with an UV plate reader (190 to 500 nm). Compounds with poor UV absorption were measured by LC-MS. The permeability coefficient Pe (10^−6 cm/sec) of the drug was calculated by the following formula.

porcine tubulin [2] = target: T1, porcine tubulin (Sus scrofa, UniProt P02550+P02554); assay: Activity for inhibiting microtubule polymerization using porcine tubulins (1); assay type: biochemical; design: purchased Cytoskeleton Inc. BK006P; conditions: compound 0.91 μM; absorbance at 340 nm, 37° C.; FIG. 1 and FIG. 2
T1 sequence (P02554 whole entry): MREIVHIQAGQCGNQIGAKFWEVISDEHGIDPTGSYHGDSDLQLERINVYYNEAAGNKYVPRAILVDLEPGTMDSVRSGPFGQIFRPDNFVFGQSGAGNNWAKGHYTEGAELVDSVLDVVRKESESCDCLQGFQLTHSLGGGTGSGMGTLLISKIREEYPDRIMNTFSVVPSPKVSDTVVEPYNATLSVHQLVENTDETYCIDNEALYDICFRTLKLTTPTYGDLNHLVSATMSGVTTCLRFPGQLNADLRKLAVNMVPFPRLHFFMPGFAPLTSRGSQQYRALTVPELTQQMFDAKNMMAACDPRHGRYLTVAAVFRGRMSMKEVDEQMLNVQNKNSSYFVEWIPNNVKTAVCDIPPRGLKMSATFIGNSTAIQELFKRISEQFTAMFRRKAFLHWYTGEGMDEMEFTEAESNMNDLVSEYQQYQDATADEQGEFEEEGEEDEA
T1 sequence (P02550 whole entry): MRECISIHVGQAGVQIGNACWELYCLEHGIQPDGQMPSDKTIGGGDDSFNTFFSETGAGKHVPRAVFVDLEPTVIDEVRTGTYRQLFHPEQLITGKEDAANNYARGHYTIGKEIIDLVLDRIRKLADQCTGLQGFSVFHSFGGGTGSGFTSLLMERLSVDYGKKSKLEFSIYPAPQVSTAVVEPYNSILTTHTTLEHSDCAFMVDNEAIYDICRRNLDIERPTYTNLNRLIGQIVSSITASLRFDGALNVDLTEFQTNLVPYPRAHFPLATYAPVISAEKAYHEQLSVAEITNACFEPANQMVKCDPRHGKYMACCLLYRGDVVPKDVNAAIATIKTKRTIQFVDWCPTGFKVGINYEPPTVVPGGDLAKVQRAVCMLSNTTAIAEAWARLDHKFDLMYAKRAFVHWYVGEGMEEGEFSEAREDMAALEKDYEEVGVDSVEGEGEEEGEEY

porcine tubulin [3] = target: T1, porcine tubulin; assay: Activity for inhibiting microtubule polymerization using porcine tubulins (2), microtubule polymerization rate; conditions: 60 minutes after assay initiation; relative to wells without compound; lower = stronger inhibition
[4] = mouse, plasma, iv, 1 mg/kg, single intravenous 1.0 mg/kg, 0.5 hr, read-out: Blood concentration, mean value
[5] = mouse, plasma, iv, 1 mg/kg, single intravenous 1.0 mg/kg, 2 hr, read-out: Blood concentration, individual mice 1-3
[6] = mouse, plasma, iv, 1 mg/kg, single intravenous 1.0 mg/kg, 2 hr, read-out: Blood concentration, mean value
[7] = single intravenous 1.0 mg/kg, 0.5 hr, 1 mg/kg
[8] = single intravenous 1.0 mg/kg, 2 hr, 1 mg/kg
[9] = single intravenous 1.0 mg/kg, 6 hr
[10] = single intravenous 1.0 mg/kg, 24 hr

Row | SMILES | half-life ([1]; mouse, plasma, 1 mg/kg) | concentration at 0.5 hr [1, 4] | concentration at 2 hr [1, 5] | concentration at 2 hr [1, 6] | Blood concentration, individual mice 1-3 [1, 7] | Blood concentration, individual mice 1-3 [1, 8] | IC50 (SK-BR-3 cells) | IC50 (SU-DHL-1 cells) | IC50 (Karpas-299 cells) | activity for inhibiting microtubule polymerization (porcine tubulin [2]) | Microtubule polymerization rate (%) (porcine tubulin [3]) | further results
1 | CN[C@H](C(=O)N[C@H](C(=O)N(C)[C@H](/C=C(\C)C(=O)N[C@H](CCC(=O)O)C(=O)O)C(C)C)C(C)(C)C)C(C)(C)c1cn(C)c2ccccc12 [Example 4] | < 0.5 h | 13.7 ng/mL | 0.7 ng/mL | 0.8 ng/mL | 10.3 ng/mL and 10.2 ng/mL and 20.6 ng/mL | 1.0 ng/mL and 0.7 ng/mL | 193 nM | 250 nM | 291 nM | exhibited activities for inhibiting microtubule polymerization; also recorded: exhibited a stronger polymerization inhibitory activity |  | Blood concentration, individual mice 1-3 [1, 9]: n.d. (less than the detection limit value (0.5 ng/mL)); Blood concentration, mean value [1, 9]: n.d. (less than the detection limit value (0.5 ng/mL)); Blood concentration, individual mice 1-3 [1, 10]: n.d. (less than the detection limit value (0.5 ng/mL)); Blood concentration, mean value [1, 10]: n.d. (less than the detection limit value (0.5 ng/mL)); Blood concentration of Example 4 detected as metabolite of Example 14 ([1]; single intravenous administration of Example 14, 6 hr, animal 1): n.d. (less than the detection limit value (0.5 ng/mL)); Blood concentration of Example 4 detected as metabolite of Example 14 ([1]; single intravenous administration of Example 14, 6 hr, animal 2): n.d. (less than the detection limit value (0.5 ng/mL)); Blood concentration of Example 4 detected as metabolite of Example 14 ([1]; single intravenous administration of Example 14, 6 hr, animal 3): n.d. (less than the detection limit value (0.5 ng/mL)); Blood concentration of Example 4 detected as metabolite of Example 14, mean ([1]; single intravenous administration of Example 14, 6 hr): n.d. (less than the detection limit value (0.5 ng/mL)); Blood concentration of Example 4 detected as metabolite of Example 14 ([1]; single intravenous administration of Example 14, 24 hr, animal 1): n.d. (less than the detection limit value (0.5 ng/mL)); Blood concentration of Example 4 detected as metabolite of Example 14 ([1]; single intravenous administration of Example 14, 24 hr, animal 2): n.d. (less than the detection limit value (0.5 ng/mL)); Blood concentration of Example 4 detected as metabolite of Example 14 ([1]; single intravenous administration of Example 14, 24 hr, animal 3): n.d. (less than the detection limit value (0.5 ng/mL)); Blood concentration of Example 4 detected as metabolite of Example 14, mean ([1]; single intravenous administration of Example 14, 24 hr): n.d. (less than the detection limit value (0.5 ng/mL)); Papp (in vitro): < 0.1 ×10⁻⁶ cm/s
2 | CCOC(=O)CC[C@@H](NC(=O)/C(C)=C/[C@H](C(C)C)N(C)C(=O)[C@@H](NC(=O)[C@@H](NC)C(C)(C)c1cn(C)c2ccccc12)C(C)(C)C)C(=O)OCC [Example 9] |  |  |  |  |  |  |  |  |  | exhibited activities for inhibiting microtubule polymerization |  | 
3 | CN[C@H](C(=O)N[C@H](C(=O)N(C)[C@H](/C=C(\C)C(=O)N[C@@H](CC(=O)O)C(=O)O)C(C)C)C(C)(C)C)C(C)(C)c1cn(C)c2ccccc12 [Example 11] |  |  |  |  |  |  | 157 nM | 158 nM | 220 nM |  | 5% | 
4 | CN[C@H](C(=O)N[C@H](C(=O)N(C)[C@H](/C=C(\C)C(=O)N[C@@H](CS)C(=O)OC)C(C)C)C(C)(C)C)C(C)(C)c1cn(C)c2ccccc12 [Example 22] |  |  |  |  |  |  | 1.92 nM | 1.22 nM |  |  |  | 
5 | CN[C@H](C(=O)N[C@H](C(=O)N(C)[C@H](/C=C(\C)C(=O)N[C@@H](CS)C(=O)O)C(C)C)C(C)(C)C)C(C)(C)c1cn(C)c2ccccc12 [Example 23] |  |  |  |  |  |  | 143 nM | > 50 nM |  | exhibited activities for inhibiting microtubule polymerization |  | 
6 | CN[C@H](C(=O)N[C@H](C(=O)N(C)[C@H](/C=C(\C)C(=O)O)C(C)C)C(C)(C)C)C(C)(C)c1cn(C)c2ccccc12 [Hemiasterlin, hemiasterlin] | < 13.1 h | 65 ng/mL | 25.1 ng/mL | 25.8 ng/mL | 54.5 ng/mL and 99.8 ng/mL and 40.6 ng/mL | 22.2 ng/mL and 30.20 ng/mL | 0.088 nM |  | 0.032 nM |  | 3% | concentration at 6 hr ([1]; mouse, plasma, iv, 1 mg/kg, single intravenous 1.0 mg/kg, 6 hr, read-out: Blood concentration, individual mice 1-3): 18.9 ng/mL; concentration at 6 hr ([1]; mouse, plasma, iv, 1 mg/kg, single intravenous 1.0 mg/kg, 6 hr, read-out: Blood concentration, mean value): 22.4 ng/mL; concentration at 24 hr ([1]; mouse, plasma, iv, 1 mg/kg, single intravenous 1.0 mg/kg, 24 hr, read-out: Blood concentration, mean value): 8.3 ng/mL; Blood concentration, individual mice 1-3 ([1]; single intravenous 1.0 mg/kg, 6 hr, 1 mg/kg): 18.2 ng/mL and 30.2 ng/mL; Blood concentration, individual mice 1-3 ([1]; single intravenous 1.0 mg/kg, 24 hr, 1 mg/kg): 2.4 ng/mL and 12.8 ng/mL and 9.5 ng/mL
